Data reported in patent US20240042046A1, “METHODS AND COMPOUNDS FOR MODULATING HUNTINGTON'S DISEASE” (Design Therapeutics, Inc., priority 2022, published 2024).

Columns and labels:
[1] = system: human HTT mRNA, SNP rs362331 T allele, GM09197 fibroblasts; assay: Screening of HD molecules in GM09197 fibroblasts, allele-specific HTT mRNA by RT-PCR, T allele; format: cell-based; conditions: for Gm09197 Emin 48 hr T Allele (%): Emin = lowest % HTT observed within compound concentration 0.5 nM to 1000 nM; for IC50: Homo sapiens, Fibroblast, 48-hour incubation, T allele HTT mRNA normalized to GAPDH, relative to vehicle
Procedure: (§1) Molecular Biology Toolkit: • qPCR primer probe sets: • RNA input normalization was assessed utilizing human glyceraldehyde 3-phosphate dehydrogenase (hGAPDH) TaqMan assay (ThermoFisher cat #4351370) or Human Cyclophillin ([…]) TaqMan assay (ThermoFisher cat #4351372) • Total HTT detection was assessed utilizing human Htt TaqMan assay (ThermoFisher cat #4331182) • Allele-specific detection of human HTT expression in HD cells containing the SNP rs362331C/T (Exon 50): for each assay, allele-specific probes to detect the SNP variant contained locked nucleic acid bases to improve allele discrimination, as compared to unmodified DNA probes.
(§2) • qPCR was performed using Agpath ID one-step reverse transcriptase polymerase chain reaction (RT-PCR) reagent
(§3) Screening of HD molecules methods: GM09197 and/or GM04022 fibroblasts were cultured in T175 flasks incubated at 37° C. and 5% CO2. Once confluency was reached, the media was removed, the cells were washed with 1×PBS, and cells were dissociated using TrypLE™ Express Enzyme. Media was added to the enzyme and collected into a 15-mL conical tube and centrifuged at 500×g for 5 minutes to pellet the cells. Media and enzyme were aspirated using a serological pipette. Cells were resuspended in fresh media and counted using a Countess 3 Automated Cell Counter. Cells were plated at a density of 15,000 cells/well in a tissue culture-treated polystyrene 96-well dish and incubated at 37° C. and 5% CO2 overnight. The next day, media was removed using an 8-channel aspirator. 200 μL media/well are added back into the plate. The molecules are formulated to 1 mM and are dispensed using a Multidrop™ Pico 8 Digital Dispenser. After a 48-hour incubation with compounds, media was removed from plates, cells were washed with 1×PBS, and cells were lysed in 40 μL per well guanidinium thiocyanate buffer. RNA was isolated and purified in […] glass fiber column plates using chaotropic salts. Human mtHTT, wtHTT, and GAPDH mRNA were measured via RT-PCR using the ThermoFisher QuantStudio™ 7 Flex System in 384-well format. Results of HTT levels were normalized to GAPDH mRNA levels. Normalized HTT mRNA levels were expressed relative to vehicle-treated samples to assess fold change after molecule treatment.
(§4) Emin for each compound is the lowest % HTT concentration observed within a compound concentration of 0.5 nM to 1000 nM.

[2] = system: human HTT mRNA, SNP rs362331 C allele, GM09197 fibroblasts; assay: Screening of HD molecules in GM09197 fibroblasts, allele-specific HTT mRNA by RT-PCR, C allele; format: cell-based; conditions: for GM 09197 E min 48 Hr C Allele (%): Emin = lowest % HTT observed within compound concentration 0.5 nM to 1000 nM
Procedure: as §1, §2, §3, §4

| Structure (SMILES) | Gm09197 Emin 48 hr T Allele (%) [1] | IC50 [1] [nM] | GM 09197 E min 48 Hr C Allele (%) [2] | IC50 ([2]; Homo sapiens, Fibroblast, 48-hour incubation, C allele HTT mRNA normalized to GAPDH, relative to vehicle) [nM] |
| --- | --- | --- | --- | --- |
| Cc1sc2c(c1C)C(c1ccc(Cl)cc1)=N[C@@H](CC(=O)Nc1ccc(OCCOCCOCCOCCOCCOCCOCCOCCOCCNC(=O)CCNC(=O)c3nc(NC(=O)c4cc(NC(=O)CCNC(=O)c5nc(NC(=O)CCCNC(=O)c6cc(NC(=O)c7nc(NC(=O)CCNC(=O)c8cc(NC(=O)c9nccn9C)cn8C)cn7C)cn6C)cn5C)cn4C)cn3C)cc1)c1nnc(C)n1-2 [Compound A-1] | C (C<80%) | 114 | A (A>90%) | – |
| Cc1cc(F)cc(C)c1Oc1ccc(C(C)(C)O)cc1-c1cn(C)c(=O)c2[nH]c(C(=O)Nc3ccc(OCCOCCOCCOCCOCCOCCOCCOCCOCCNC(=O)CCNC(=O)c4nc(NC(=O)c5cc(NC(=O)CCNC(=O)c6nc(NC(=O)CCCNC(=O)c7cc(NC(=O)c8nc(NC(=O)CCNC(=O)c9cc(NC(=O)c%10nccn%10C)cn9C)cn8C)cn7C)cn6C)cn5C)cn4C)cc3)cc12 [Compound A-7] | A (A>90%) | > 1000 | A (A>90%) | – |
| CCS(=O)(=O)Nc1ccc(Oc2ccc(F)cc2F)c(-c2cn(C)c(=O)c3[nH]c(C(=O)Nc4ccc(OCCOCCOCCOCCOCCOCCOCCOCCOCCNC(=O)c5cc(NC(=O)c6nc(NC(=O)[C@H](N)CCNC(=O)c7cc(NC(=O)c8nc(NC(=O)CCNC(=O)c9cc(NC(=O)c%10nccn%10C)cn9C)cn8C)cn7C)cn6C)cn5C)cc4)cc23)c1 [Compound A-21] | A (A>90%) | – | A (A>90%) | – |
| CC(=O)Nc1c(F)cc(C(=O)NC2CCC(O)CC2)cc1O[C@@H](C)c1cccc(OCCOCCOCCOCCOCCOCCOCCOCCOCCOCCOCCOCCOCCOCCOCCOCCNC(=O)CCNC(=O)c2nc(NC(=O)c3cc(NC(=O)CCNC(=O)c4nc(NC(=O)CCCNC(=O)c5cc(NC(=O)c6nc(NC(=O)CCNC(=O)c7cc(NC(=O)c8nccn8C)cn7C)cn6C)cn5C)cn4C)cn3C)cn2C)c1 (some centres unmarked) [Compound A-31] | B (B is 90% to 80%) | – | B (B is 90% to 80%) | – |
| CC(=O)Nc1c(F)cc(C(=O)N[C@H]2CC[C@H](O)CC2)cc1O[C@@H](C)c1cccc(C(=O)NCCOCCOCCOCCOCCOCCOCCOCCOCCOCCOCCOCCOCCOCCOCCOCCNC(=O)CCNC(=O)c2nc(NC(=O)c3cc(NC(=O)CCNC(=O)c4nc(NC(=O)CCCNC(=O)c5cc(NC(=O)c6nc(NC(=O)CCNC(=O)c7cc(NC(=O)c8nccn8C)cn7C)cn6C)cn5C)cn4C)cn3C)cn2C)c1 [Compound A-32] | B (B is 90% to 80%) | – | B (B is 90% to 80%) | – |
| Cc1sc2c(c1C)C(c1ccc(Cl)cc1)=N[C@@H](CC(=O)Nc1ccc(OCCOCCOCCOCCOCCOCCOCCOCCOCCNC(=O)c3cc(NC(=O)c4nc(NC(=O)[C@H](N)CCNC(=O)c5cc(NC(=O)c6nc(NC(=O)CCNC(=O)c7cc(NC(=O)c8nccn8C)cn7C)cn6C)cn5C)cn4C)cn3C)cc1)c1nnc(C)n1-2 [Compound A-35] | B (B is 90% to 80%) | – | A (A>90%) | – |
| CCS(=O)(=O)Nc1ccc(Oc2ccc(F)cc2F)c(-c2cn(C)c(=O)c3[nH]c(C(=O)Nc4ccc(OCCOCCOCCOCCOCCOCCOCCOCCOCCOCCOCCOCCOCCOCCOCCOCCNC(=O)c5cc(NC(=O)c6nc(NC(=O)[C@H](N)CCNC(=O)c7cc(NC(=O)c8nc(NC(=O)CCNC(=O)c9cc(NC(=O)c%10nccn%10C)cn9C)cn8C)cn7C)cn6C)cn5C)cc4)cc23)c1 [Compound A-36] | A (A>90%) | – | A (A>90%) | – |
| Cc1sc2c(c1C)C(c1ccc(Cl)cc1)=N[C@@H](CC(=O)Nc1ccc(OCCOCCOCCOCCOCCOCCOCCOCCOCCNC(=O)c3cc(NC(=O)c4nc(NC(=O)c5cc(NC(=O)[C@@H](N)CCNC(=O)c6nc(NC(=O)CCNC(=O)c7cc(NC(=O)c8nccn8C)cn7C)cn6C)cn5C)cn4C)cn3C)cc1)c1nnc(C)n1-2 [Compound A-37] | B (B is 90% to 80%) | > 1000 | B (B is 90% to 80%) | > 1000 |
